Earlier results, collected in patent US20140044685A1, “NUTRITIONAL COMPOSITIONS HAVING ALPHA-HICA AND CITRULLINE” (NESTEC S.A., priority 2011, published 2014).

Experiments:
[1] = tested on: intestinal mammalian target of rapamycin (mTOR); conditions: piglet stressed with LPS; leading to increased protein synthesis and anti-inflammatory responses
[2] = piglet stressed with LPS
[3] = malnourished aged animals

For O=C(O)CCC(=O)C(=O)O [AKG, α-ketoglutarate], the “phosphorylation of intestinal mammalian target of rapamycin (mTOR)” value [1] is given as “increased”, the crypt depth [2] is given as “reduced” and the villous height [2] is given as “increased”.
In the case of NC(=O)NCCC[C@H](N)C(=O)O [Citrulline, citrulline], the anabolic effect [3] is given as “anabolic effect”.
